Values of other authors in patent EP2708126A1, “Insecticidal aerosol” (priority 2012, dated 2014).

Conditions: rats, through ingestion

SMILES	LD50 [mg/kg]
CC1(C)C(C=C(Cl)Cl)C1C(=O)OCc1cccc(Oc2ccccc2)c1 (stereo not drawn) [Permethrin, 3-phenoxybenzyl-3-(2,2-dichlorovinyl)-2,2-dimethylcyclopropane-carboxylate]	383
CNC(=O)Oc1cccc2c1OC(C)(C)O2 [Bendiocarb, 2,2-dimethyl-1,3-benzodioxol-4-yl-N-methylcarbamate]	55
CC1(C)C(C=C(Cl)Cl)C1C(=O)OC(C#N)c1cccc(Oc2ccccc2)c1 (racemic) [Alpha cypermethrin]	79
